Measurements: ChEMBL document CHEMBL1268994, “Synthesis and molecular modelling studies of prenylated pyrazolines as MAO-B inhibitors” (Bioorg Med Chem Lett, 2010)

How the values were obtained:
[1] = biological target: T1, Amine oxidase [flavin-containing] A (Homo sapiens, UniProt P21397); assay: biochemical
T1 sequence (P21397 whole entry): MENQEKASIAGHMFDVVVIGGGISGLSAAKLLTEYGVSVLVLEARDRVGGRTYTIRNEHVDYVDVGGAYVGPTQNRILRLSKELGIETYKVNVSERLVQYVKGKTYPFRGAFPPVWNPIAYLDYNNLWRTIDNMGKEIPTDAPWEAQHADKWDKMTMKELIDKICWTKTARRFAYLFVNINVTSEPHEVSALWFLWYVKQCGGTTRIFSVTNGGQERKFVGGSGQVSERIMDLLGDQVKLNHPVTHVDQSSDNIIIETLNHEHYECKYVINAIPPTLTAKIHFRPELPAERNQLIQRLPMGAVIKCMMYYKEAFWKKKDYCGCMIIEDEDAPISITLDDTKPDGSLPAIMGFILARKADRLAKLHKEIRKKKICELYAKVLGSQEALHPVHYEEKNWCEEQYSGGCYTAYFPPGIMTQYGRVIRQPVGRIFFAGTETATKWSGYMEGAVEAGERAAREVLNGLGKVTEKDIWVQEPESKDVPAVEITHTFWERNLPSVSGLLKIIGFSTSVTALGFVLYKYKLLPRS

[2] = biological target: T2, Amine oxidase [flavin-containing] B (Homo sapiens, UniProt P27338); assay: biochemical; type: cell-based
T2 sequence (P27338 whole entry): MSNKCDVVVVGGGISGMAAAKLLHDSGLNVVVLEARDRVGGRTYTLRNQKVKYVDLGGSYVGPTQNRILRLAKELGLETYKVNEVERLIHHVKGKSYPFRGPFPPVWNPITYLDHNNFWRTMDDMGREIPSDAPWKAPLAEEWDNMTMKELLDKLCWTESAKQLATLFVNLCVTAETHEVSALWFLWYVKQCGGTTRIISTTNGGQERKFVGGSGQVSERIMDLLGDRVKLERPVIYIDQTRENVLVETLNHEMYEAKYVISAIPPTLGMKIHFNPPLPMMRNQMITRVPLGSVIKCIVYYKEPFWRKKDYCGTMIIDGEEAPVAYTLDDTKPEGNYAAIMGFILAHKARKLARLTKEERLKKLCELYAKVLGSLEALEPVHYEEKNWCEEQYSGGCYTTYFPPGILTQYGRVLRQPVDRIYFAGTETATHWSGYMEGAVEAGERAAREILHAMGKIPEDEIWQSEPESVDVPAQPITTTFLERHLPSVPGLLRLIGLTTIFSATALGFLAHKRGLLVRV

[3] = biological target: T1, Amine oxidase [flavin-containing] A; assay: Inhibition of human recombinant MAO-A expressed in baculovirus infected BT1 cells at 100 uM
[4] = biological target: T2, Amine oxidase [flavin-containing] B; assay: Inhibition of human recombinant MAO-B expressed in baculovirus infected BT1 cells at 1 mM; conditions: 1000 µM

Row | IC50 [1] [µM] | IC50 [2] [µM] | inhibition (INH) [3] | inhibition (INH) [4] | Structure (SMILES)
1 | 0.316 | 0.174 |  |  | CC(=O)N1N=C(c2ccc(OCC=C(C)C)cc2O)CC1c1ccc(OCc2ccccc2)cc1 (configuration not stated)
2 |  | 52.5 | Not Active |  | CC(C)=CCOc1ccc(C2=NN(C(N)=S)C(c3ccccc3)C2)c(O)c1 (configuration not stated)
3 |  | 0.832 | Not Active |  | CC(C)=CCOc1ccc(C2=NN(C(N)=S)C(c3ccc(Cl)cc3)C2)c(O)c1 (configuration not stated)
4 |  |  |  | Not Active | O=C(NCCN1CCOCC1)c1ccc(Cl)cc1 [MOCLOBEMIDE]
